Measurements as given in PubChem BioAssay (NCI).
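Five compound concentrations were applied to cells in 96-well plates for 48 hours; endpoints were derived by simple linear interpolation of the resulting dose-response curve. Abbreviation: GI50, concentration required for 50% inhibition of growth. TGI: concentration producing complete growth inhibition.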

Tests used:
Test in all cases: inhibition of tumour cell growth, NCI panel, 48 h
[1] = test system: SNB-19 CNS
[2] = test system: KM12 colon
[3] = test system: PC-3 prostate
[4] = test system: HOP-92 NSCLC
[5] = test system: HCC-2998 colon
[6] = test system: SW-620 colon
[7] = test system: SNB-75 CNS
[8] = test system: EKVX NSCLC
[9] = test system: ACHN renal
[10] = test system: HL-60(TB) leukemia

| Compound | GI50 [1] [µM] | TGI [1] [µM] | GI50 [2] [µM] | TGI [2] [µM] | GI50 [3] [µM] | TGI [3] [µM] | GI50 [4] [µM] | TGI [4] [µM] | GI50 [5] [µM] | TGI [5] [µM] | GI50 [6] [µM] | TGI [6] [µM] | GI50 [7] [µM] | TGI [7] [µM] | GI50 [8] [µM] | TGI [8] [µM] | GI50 [9] [µM] | TGI [9] [µM] | GI50 [10] [µM] | TGI [10] [µM] |
| --- | --- | --- | --- | --- | --- | --- | --- | --- | --- | --- | --- | --- | --- | --- | --- | --- | --- | --- | --- | --- |
| O=C1C(Nc2ccc(Cl)cc2)=C(I)C(=O)c2ncccc21 | 1.61 | 3.23 | 1.68 | 11 | 1.12 | 2.6 | 1.43 | 2.9 | 1.77 | 3.74 | 0.378 | 2 | 1.31 | 3.09 | 1.71 | 3.32 | 0.376 | 1.32 |  |  |
| CC1(C)C2CCC13C(=O)C1OC3(C2)C2C(=O)c3ccccc3C(=O)C12 (stereo not given) | > 100 | > 100 | 82.9 | > 100 | 77.2 | > 100 | > 100 | > 100 | > 100 | > 100 |  |  | > 100 | > 100 |  |  | > 100 | > 100 | > 100 | > 100 |
| Nc1ncnc2c1N=C(c1ccc3c(c1)OCO3)CC(c1ccc([N+](=O)[O-])cc1)N2 (stereo not given) | 84.9 | > 100 | 35.2 | > 100 | 31.1 | > 100 |  |  | 66.1 | > 100 | 53.2 | > 100 | 39.4 | > 100 | 92.6 | > 100 | 29.1 | > 100 | 13.1 | > 100 |
| O=C(Nc1ccc(Br)cc1F)c1cc(I)ccc1O | 3.08 | > 100 | 2.98 | 9.14 | 2.31 | 7.86 | 1.08 | 4.8 | 3.14 | 12.7 | 3.07 | 17.7 |  |  | 2.25 | 28.6 |  |  | 2.13 | 4.79 |
| O=C(/C=C/Sc1cc(C(F)(F)F)cc(C(F)(F)F)c1)c1ccc(Cl)cc1 | 12.8 | 25.4 | 13.5 | 27.8 | 2.42 | 5.97 |  |  | 19.2 | 33.4 | 17 | 41.3 | 12.8 | 25.7 | 14.3 | 30.5 | 1.78 | 3.36 | 2 | 11.4 |
| O=C(C/C(=N/O)C(=O)NC1=C(Cl)C(=O)c2ccccc2C1=O)CC(c1ccccc1)c1c(O)c2ccccc2oc1=O (stereo not given) |  | > 100 |  | 17.8 |  | > 100 |  | > 100 |  | 25.6 |  | > 100 |  | 19 |  | 42.3 |  | 65.7 |  |  |
